Test results from patent US20240398844A1, “PHENYLCOUMARINS FOR TREATING INFLAMMATION” (Ohio State Innovation Foundation, priority 2021, published 2024).
Entries after “also recorded” stand apart in the source; their conditions may differ.

Key:
NFκB p65 = test: Diabetic zebrafish Western blot, NFκB expression; format: in vivo; settings: for NFκB p65 expression (Western blot band density): diabetic zebrafish, 10, 5, and 1 μM (rosiglitazone 10 μM), FIG. 10
Protocol: (§1) Alloxan-induced diabetic zebrafish were treated with compounds for immunoblot to validate the newly developed animal model, determine the antidiabetic potential of natural product leads, evaluate glucose metabolism, and discover possible mechanisms of action.
At 72 hpf, naturally dechorionated zebrafish were sorted into a 24-well microplate with 10 fish per well. Type 2 diabetes was induced with the diabetogenic agent alloxan at a dose of 0.5 mg/mL in system water for 3 hours. […] After 3 hours of treatment with natural product samples, 10 mg/mL D-glucose was administered in system water for 30 minutes, followed by 1 hour in fresh system water to metabolize the glucose and natural product leads. Upon completion of the 4-phase treatment cycle, zebrafish treatment groups were snap frozen into individual microcentrifuge tubes on dry ice, stored overnight at −80° C., thawed, homogenized with 2 μL PBS per animal, and centrifuged at 4° C. for 1 hour at 17,000 rpm. Protein content of homogenate supernatant was determined using the Pierce BCA Protein Assay kit (Pierce Biotechnology) and bovine serum albumin (BSA) standard curve. Absorbance of protein solutions from zebrafish homogenates and serial dilutions of the BSA standard were measured at 544 nm, using a FLUOstar Optima plate reader (BMG Labtechnologies GmbH, Inc.). Homogenates were analyzed by Western blot. Equal amounts of protein (20 μg) were combined with 4× lithium dodecyl sulphate (LDS) loading buffer (NuPAGE, Life Technologies, Carlsbad, CA, USA), brought to volume (15 μL) with PBS, and heated to 95° C. for 5 minutes. Proteins were resolved using NuPAGE Bis-Tris 4-12% gradient sodium dodecyl sulfate polyacrylamide gel electrophoresis (SDS-PAGE) gels together with SeeBlue Plus2 Pre-Stained Standard Ladder (Life Technologies).
(§2) Electrophoresis was performed using NuPAGE MES SDS Running Buffer and XCell SureLock Mini-Cell Electrophoresis System (Life Technologies). Separated proteins were transferred from the gel to a polyvinylidene fluoride (PVDF) membrane using tris buffered saline with Tween-20 (TBST) buffer. The blots were blocked in 3% BSA in TBST and subsequently probed using primary antibodies (1:1000 in 1% BSA in TBST) against each target overnight (Table 1). The secondary, horseradish peroxidase (HRP) conjugated antibodies (1:2000) were obtained from Santa Cruz Biotechnology Inc., (Santa Cruz, CA, USA). Conjugated antibodies were detected using SuperSignal West Femto chemiluminescent substrate from Pierce Biotechnology. Western blots were visualized, and images captured using a luminometer and LumiAnalyst 3.0 software (Boehringer-Mannheim, Mannheim, Germany). Band density was quantified for proteins of interest using ImageJ Gel Analysis.
In the case of duplicate blots, the band density results were expressed in bar graphs as the mean±standard error of the mean (SEM) of two independent experiments. Due to the labor- and time-intensive aspect of Western blot analysis with multiple target proteins, a maximum of two independent immunoblot experiments were performed per compared sample set. […] Additionally, treatment groups were also evaluated versus the diabetic, untreated control group for significance by Student's f-test and indicated in the bar graphs with p values represented by *p<0.05, **p<0.01, and ***p<0.001. […]

PPAR-γ = test: Diabetic zebrafish Western blot, PPAR-γ expression; format: in vivo; settings: for PPAR-γ expression, dose dependence: diabetic zebrafish, 10, 5, and 1 μM
Protocol: as §1
At 72 hpf, naturally dechorionated zebrafish were sorted into a 24-well microplate with 10 fish per well. Type 2 diabetes was induced with the diabetogenic agent alloxan at a dose of 0.5 mg/mL in system water for 3 hours. The incubation solution was changed to 0.01% DMSO in system water with compounds at concentrations of 20 μg/mL or […], respectively. After 3 hours of treatment with natural product samples, 10 mg/mL D-glucose was administered in system water for 30 minutes, followed by 1 hour in fresh system water to metabolize the glucose and natural product leads. Upon completion of the 4-phase treatment cycle, zebrafish treatment groups were snap frozen into individual microcentrifuge tubes on dry ice, stored overnight at −80° C., thawed, homogenized with 2 μL PBS per animal, and centrifuged at 4° C. for 1 hour at 17,000 rpm. Protein content of homogenate supernatant was determined using the Pierce BCA Protein Assay kit (Pierce Biotechnology) and bovine serum albumin (BSA) standard curve. Absorbance of protein solutions from zebrafish homogenates and serial dilutions of the BSA standard were measured at 544 nm, using a FLUOstar Optima plate reader (BMG Labtechnologies GmbH, Inc.). Homogenates were analyzed by Western blot. Equal amounts of protein (20 μg) were combined with 4× lithium dodecyl sulphate (LDS) loading buffer (NuPAGE, Life Technologies, Carlsbad, CA, USA), brought to volume (15 μL) with PBS, and heated to 95° C. for 5 minutes. Proteins were resolved using NuPAGE Bis-Tris 4-12% gradient sodium dodecyl sulfate polyacrylamide gel electrophoresis (SDS-PAGE) gels together with SeeBlue Plus2 Pre-Stained Standard Ladder (Life Technologies).
as §2, with “Western blots were visualized, and images captured using a luminometer and LumiAnalyst 3.0 software (Boehringer-Mannheim, Mannheim, Germany).” left out, “Analysis. […]” for “Analysis.”

NFκB = NFκB in vitro assay, NFκB translocation to the nucleus in HeLa cells; format: cell-based; settings: for IC50: inhibiting NFκB translocation to the nucleus, tested at 50, 5, 0.5, and 0.05 μM
Protocol: Following derivatization and purification, compound 40 was tested in the NFκB and PPAR-Y in vitro assays, as well as the diabetic zebrafish Western blot. The three 4-phenylcoumarin glycoside natural products from the diverse library (22, 23, and 24) and the isopropyl ether derivative (40), were evaluated for PPAR-γ activity at 50 μg/mL in HeLa cells according to a PPAR-γ ELISA Assay (Table 4). […] NFκB Assay (Table 4).
As an excellent lead, 24 was derivatized to yield 40, and both compounds were evaluated in the NFκB and PPAR-γ in vitro assays (Table 4). […] To investigate 24 and 40 in a live, metabolizing system with appropriate hormone responses, the compounds were tested (at 10, 5, and 1 μM) in the larval diabetic zebrafish assay.

PEPCK = test: Diabetic zebrafish Western blot, PEPCK expression; format: in vivo; settings: FIG. 8; for PEPCK expression, efficacy of lower doses: diabetic zebrafish, 5 and 1 μM; for PEPCK expression, dose dependence: diabetic zebrafish, 10, 5, and 1 μM

For `COc1cc(O[C@@H]2OCC(O)(CO[C@@H]3OC(CO)[C@@H](O)C(O)C3O)C2O)c2c(-c3ccc(OC(C)C)c(O)c3)cc(=O)oc2c1` (single isomer, unassigned) [Compound 40], which “NFκB p65 expression (Western blot band density)” value (NFκB p65) is on record?
Its value is “significantly inhibit NFκB expression versus the untreated, diabetic control”.

And the “PPAR-γ expression, dose dependence” value (PPAR-γ; FIG. 9)?
The value was “dose-dependent activation of PPAR-γ; also recorded: not as effective as 24”.

And the “times less effective at inhibiting NFκB translocation than parent compound 24” value (NFκB)?
The value was 2.6 times.

What about the IC50 (NFκB) of the same compound?
The IC50 was 10.2 µM.

What about the “PEPCK expression, efficacy of lower doses” value (PEPCK) of the same compound?
The value was “not effective”.

What about the “PEPCK expression, dose dependence” value (PEPCK) of the same compound?
Its value is “dose-dependent increase in PEPCK expression; also recorded: slightly less active than the parent compound”.

With `COc1cc(O[C@@H]2O[C@H](CO[C@@H]3OCC(O)(CO)[C@H]3O)[C@@H](O)[C@H](O)[C@H]2O)c2c(-c3ccc(O)c(O)c3)cc(=O)oc2c1` (stereo partly drawn) [Compound 24, 5-O-[β-D-apiofuranosyl-(1→6)-β-D-glucopyranosyl]-7-methoxy-3′,4′-dihydroxy-4-phenylcoumarin] as the compound, how does the “NFκB expression (Western blot)” value (NFκB p65; diabetic zebrafish, 10 μM, FIG. 5) read?
Its value is “excellent inhibition of NFκB expression”.

And the “NFκB p65 expression (Western blot band density)” value (NFκB p65)?
Its value is “opposite dose-dependent effect”.

What about the “PPAR-γ expression (Western blot band density)” value (PPAR-γ; diabetic zebrafish, 10 μM, library screen, FIG. 3 / FIG. 11) of the same compound?
Its value is “greater PPAR-7 expression than the PPAR-γ positive control; also recorded: greatest PPAR-γ activation surpassing even the positive control thiazolidinedione”.

And the “PPAR-γ expression, dose dependence” value (PPAR-γ; FIG. 9)?
The value was “dose-dependent activation of PPAR-γ”.

What about the “PPAR-γ expression versus rosiglitazone” value (PPAR-γ; diabetic zebrafish, same concentration (10 μM), FIG. 9) of the same compound?
The value was “greater PPAR-γ expression than the FDA-approved PPAR-γ agonist”.

And the IC50 (NFκB)?
The IC50 was 3.95 µM.

What about the “PEPCK expression, efficacy of lower doses” value (PEPCK) of the same compound?
Its value is “not effective”.

And the “PEPCK expression, dose dependence” value (PEPCK)?
The value was “dose-dependent increase in PEPCK expression”.
